In patent US20070098649A1, “Method and composition for controlling oral pathogens” (priority 2004, published 2007):
Counter-ions that a name gives are not always drawn. Like-named read-outs stand apart in the source and are kept apart here. Marks after values point to notes of the source that are not given here.

Assays:
[1] = test system: Porphymonas gingivalis; assay: MIC microdilution assay; assay type: cell-based; details: P. gingivalis; for MIC: Porphyromonas gingivalis
[2] = test system: Streptococcus gordonii; assay: MIC microdilution assay; assay type: cell-based; details: S. gordonii
[3] = test system: Streptococcus mutans; assay: MIC microdilution assay; assay type: cell-based; details: S. mutans; for MIC: Streptococcus mutans
[4] = test system: Fusobacterium nucleatum; assay: MIC microdilution assay; assay type: cell-based; details: F. nucleatum
[5] = test system: Actinobacillus actinomycetemcomitans; assay: MIC microdilution assay; assay type: cell-based; details: for MIC: Aggregatibacter actinomycetemcomitans
[6] = test system: oral pathogens; assay: Combination determination, statements on the oral pathogens; assay type: cell-based; details: berberine hydrochloride / berberine (B-CG and B-S)
Protocol: (§1) The alkaloids were tested in pair-wise combinations (fractional inhibitory concentrations, FIC) against all the bacteria to determine whether interactions were antagonistic (FIC>1), additive (0.5<FIC<1), or synergistic (FIC<0.5). The FIC was calculated by the following: (MIC Acombination/MIC Aalone)+(MIC Bcombination/MIC Balone). Where A represents compound 1 and B represents compound 2. […] In the case of A. actinomycetemcomitans and P. aeruginosa, CHX was used at 0.78 to 50 μg ml^−1. Berberine (B-CG and B-S) was used at concentrations 0.9 to 250 μg ml^−1. The antibacterial efficacy of berberine (1.95 to 500 μg ml^−1) was tested in combination against P. aeruginosa with CHX (0.78 to 50 μg ml^−1) (Sigma Chemicals) and the polymyxin antibiotic Col (0.04 to 25 μg ml^−1) (Sigma Chemicals). The plates were incubated for 24 hours.

[7] = test system: Staphylococcus aureus; assay: MIC microdilution assay; assay type: cell-based; details: S. aureus, agent alone, read-out: MIC of the antimicrobial agents alone
[8] = test system: Streptococcus mutans; assay: Combination determination (FIC, MIC in combination); assay type: cell-based; details: S. mutans; berberine (B-CG) combined with CHX, Tet or Dox; MIC of the named agent in the combination
Protocol: as §1
CHX was diluted from left to right at 10 to 0.08 μg ml^−1 ([…] 1 to 8), berberine was diluted from top to bottom at 250 to 0.09 μg ml^−1 ([…] 1 to 8). Column 9 was the cell control, column 10 was berberine alone (250 to 0.09 μg ml^−1); and column 11 was CHX alone (10 to 0.08 μg ml^−1). Row H was the solvent control (8% DMSO, H1 to H8). Column 12 was the media blank. The dilution assay was designed such that A1 contained the highest concentration of both agents (berberine 250 μg ml^−1 and CHX 10 μg ml^−1). The final concentration of berberine in wells A2 to A8 was […]. The FIC value was calculated from well C6. FIC was calculated by: (MIC Acombination/MIC Aalone)+(MIC Bcombination/MIC Balone).

[9] = test system: Escherichia coli; assay: MIC microdilution assay; assay type: cell-based; details: E. coli, agent alone, read-out: MIC of the antimicrobial agents alone
[10] = test system: Porphymonas gingivalis; assay: Combination determination (FIC, MIC in combination); assay type: cell-based; details: P. gingivalis; berberine (B-CG) combined with CHX, Tet or Dox; MIC of the named agent in the combination
Protocol: as §1

[11] = test system: Streptococcus gordonii; assay: as above; assay type: cell-based; details: S. gordonii; berberine (B-CG) combined with CHX, Tet or Dox; MIC of the named agent in the combination
Protocol: as §1

[12] = test system: Escherichia coli; assay: as above; assay type: cell-based; details: E. coli
Protocol: as §1

[13] = test system: Staphylococcus aureus; assay: as above; assay type: cell-based; details: S. aureus
Protocol: as §1

[14] = test system: Actinobacillus actinomycetemcomitans; assay: as above; assay type: cell-based; details: A. actinomycetemcomitans grown under anaerobic conditions; berberine (B-CG) combined with CHX, Tet or Dox; MIC of the named agent in the combination
Protocol: as §1

[15] = test system: Fusobacterium nucleatum; assay: as above; assay type: cell-based; details: F. nucleatum; berberine (B-CG) combined with CHX, Tet or Dox; MIC of the named agent in the combination
Protocol: as §1

[16] = test system: S. aureus, E. coli, P. aeruginosa, and S. sanguis; details: isolated from H. canadensis; cited from earlier work
[17] = test system: Pseudomonas aeruginosa; assay: MIC microdilution assay; assay type: cell-based; details: P. aeruginosa; agent alone
[18] = test system: Pseudomonas aeruginosa; assay: Combination determination (FIC, MIC in combination); assay type: cell-based; details: P. aeruginosa
Protocol: as §1

[19] = agent alone, read-out: MIC of the antimicrobial agents alone
[20] = berberine (B-CG) combined with CHX, Tet or Dox, MIC of the named agent in the combination
[21] = berberine hydrochloride / chloride

COc1cc2c(cc1O)[C@@H]1Cc3ccc(OC)c(OC)c3CN1CC2 [Isocorypalamine, isocorypalmine]
MIC of Goldenseal Alkaloids Against Selected Oral Pathogens ([1]; Pg): >125 µg/mL | MIC of Goldenseal Alkaloids Against Selected Oral Pathogens ([2]; Sg): >125 µg/mL | MIC of Goldenseal Alkaloids Against Selected Oral Pathogens ([3]; Sm): >125 µg/mL | MIC of Goldenseal Alkaloids Against Selected Oral Pathogens ([4]; Fn): >125 µg/mL | MIC of Goldenseal Alkaloids Against Selected Oral Pathogens ([5]; Aa, A. actinomycetemcomitans): >125 µg/mL

CN(C)[C@@H]1C(O)=C(C(N)=O)C(=O)[C@@]2(O)C(O)=C3C(=O)c4c(O)cccc4[C@@](C)(O)[C@H]3C[C@@H]12 [Tet, tetracycline HCl]
Growth inhibition effect when combined with berberine [6]: synergistic | MIC [1, 19]: 0.08 µg/mL | MIC [7]: 1.53 µg/mL | MIC ([2]; Streptococcus gordonii, agent alone, read-out: MIC of the antimicrobial agents alone): 0.31 µg/mL | MIC of the antimicrobial agents in combination [8]: 0.20 µg/mL | MIC [3, 19]: 1.56 µg/mL | MIC ([4]; Fusobacterium nucleatum, agent alone, read-out: MIC of the antimicrobial agents alone): 0.16 µg/mL | MIC [9]: 3.06 µg/mL | MIC of the antimicrobial agents in combination [10]: 0.01 µg/mL | MIC of the antimicrobial agents in combination [11]: 0.08 µg/mL | MIC of the antimicrobial agents in combination [12, 20]: 1.53 µg/mL | Growth inhibition effect when combined with berberine [12, 21]: synergistic | MIC of the antimicrobial agents in combination [13, 20]: 0.39 µg/mL | Growth inhibition effect when combined with berberine [13, 21]: synergistic | MIC of the antimicrobial agents in combination [14]: 12.5** μg ml^−1 | MIC of the antimicrobial agents in combination [15]: 0.02 µg/mL | MIC ([5]; A. actinomycetemcomitans grown under anaerobic conditions, agent alone, read-out: MIC of the antimicrobial agents alone): 25 µg/mL

COc1ccc2cc3[n+](cc2c1O)CCc1cc2c(cc1-3)OCO2 [berberrubine]
MIC ([1]; comparable to berberine, read-out: MIC): 17 µg/mL | Concentration without growth inhibition (MIC bound) ([3]; growth hindered, but not inhibited at lower concentrations): greater than 300 μml^−1 | MIC ([3]; growth limited but not inhibited at lower concentrations, text b118, read-out: Concentration without growth inhibition (MIC bound)): > 300 µg/mL | Concentration without antimicrobial activity (MIC bound) ([5]; A. actinomycetecomitans): ≥ 300 μml^−1 | MIC ([5]; A. actinomycetemcomitans, read-out: Concentration without growth inhibition (MIC bound)): > 300 µg/mL

COc1ccc2c(c1OC)C(=O)O[C@@H]2[C@H]1c2cc3c(cc2CCN1C)OCO3 [β-hydrastine]
Antibacterial activity [16]: inactive against all the tested organisms

colistin sulfate
MIC of the antimicrobial agents alone [17]: 3.13 µg/mL | Interaction when combined with berberine [18]: no clear additive or synergistic effect | MIC of the antimicrobial agents in combination ([18]; berberine combined with CHX or Col, MIC of the named agent in the combination): 1.56 µg/mL
